Data set [1] has as its target T1, Eht1 (Saccharomyces cerevisiae, UniProt P38295).
T1 construct: 55 kDa
T1 sequence (P38295 1-451): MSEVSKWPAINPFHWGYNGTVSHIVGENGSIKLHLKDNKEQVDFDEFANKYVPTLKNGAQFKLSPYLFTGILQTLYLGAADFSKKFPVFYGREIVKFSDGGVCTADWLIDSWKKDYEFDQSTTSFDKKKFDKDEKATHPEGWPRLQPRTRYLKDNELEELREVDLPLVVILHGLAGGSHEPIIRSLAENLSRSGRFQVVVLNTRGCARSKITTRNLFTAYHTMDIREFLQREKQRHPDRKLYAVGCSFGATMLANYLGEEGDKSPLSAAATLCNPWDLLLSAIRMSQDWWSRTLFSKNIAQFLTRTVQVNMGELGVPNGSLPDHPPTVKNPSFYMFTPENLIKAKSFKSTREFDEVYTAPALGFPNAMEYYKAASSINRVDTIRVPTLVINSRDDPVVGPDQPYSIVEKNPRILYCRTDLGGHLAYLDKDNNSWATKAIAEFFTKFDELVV
The data set can be described thus: coupled alpha-ketoglutarate dehydrogenase assay of CoA release (NADH). It counts as biochemical. The note with it: 0.125% ethanol, pH 7.4, 25 °C; assay insensitive to ethanol (thioesterase).

Substrate in data set [2]: CCCCCCCC(=O)SCCNC(=O)CCNC(=O)[C@H](O)C(C)(C)COP(=O)(O)OP(=O)(O)OC[C@H]1O[C@@H](n2cnc3c(N)ncnc32)[C@H](O)[C@@H]1OP(=O)(O)O
The data set is described as above. It counts as biochemical, Saccharomyces cerevisiae. The conditions noted are these: 0.125% ethanol, pH 7.4, 25 °C, assay insensitive to ethanol (thioesterase). From the text:
coupled alpha-ketoglutarate dehydrogenase assay of CoA release (NADH) on Eht1 | the preferred substrate for Eht1 was octanoyl-CoA (largest kcat/KM)

Data set [3] deals with the molecule itself. The experiment in a line: native gel or EMSA; blue native PAGE, 4–16% acrylamide Bis–Tris gels, Coomassie G-250 added to samples at 0.005%; purified Eht1 in FC12. In general terms: Mobility shift assays separate free from complexed probe on a gel.
Data set [4] deals with the molecule itself. The data set can be described thus: SEC; Superdex 200 10/300 GL, 0.5 ml/min, in Column Buffer (50 mM sodium phosphate, pH 7.4, 150 mM NaCl, 5% glycerol, 0.1% FC-12); apparent size relative to molecular weight standards.

The text below walks through data of PMC4282330, “The yeast enzyme Eht1 is an octanoyl-CoA:ethanol acyltransferase that also functions as a thioesterase” (Yeast (Chichester, England), 2014).

“And” between values parts separate entries of the source, which are not always exact repeats. Equal values may be shown once.

Take `CCCC(=O)SCCNC(=O)CCNC(=O)[C@H](O)C(C)(C)COP(=O)(O)OP(=O)(O)OC[C@H]1O[C@@H](n2cnc3c(N)ncnc32)[C@H](O)[C@@H]1OP(=O)(O)O` [C4, acyl-CoA of chain length C4]: the KM entry in data set [1] is listed as “acyl-CoA substrates of chain length C4–C14 followed classical Michaelis–Menten kinetics”.

With `CCCCCCCCCCCC(=O)SCCNC(=O)CCNC(=O)[C@H](O)C(C)(C)COP(=O)(O)OP(=O)(O)OC[C@H]1O[C@@H](n2cnc3c(N)ncnc32)[C@H](O)[C@@H]1OP(=O)(O)O` [acyl-CoA within chain lengths C4–C14 (C12)], the KM result in data set [1] is “acyl-CoA substrates of chain length C4–C14 followed classical Michaelis–Menten kinetics”.

Turning to `CCCCCCCCCCCCCC(=O)SCCNC(=O)CCNC(=O)[C@H](O)C(C)(C)COP(=O)(O)OP(=O)(O)OC[C@H]1O[C@@H](n2cnc3c(N)ncnc32)[C@H](O)[C@@H]1OP(=O)(O)O` [C14, acyl-CoA of chain length C14], in data set [1], the KM entry was “acyl-CoA substrates of chain length C4–C14 followed classical Michaelis–Menten kinetics”. On the same count and under the same terms, with `CCCCCCCCCC(=O)SCCNC(=O)CCNC(=O)[C@H](O)C(C)(C)COP(=O)(O)OP(=O)(O)OC[C@H]1O[C@@H](n2cnc3c(N)ncnc32)[C@H](O)[C@@H]1OP(=O)(O)O` [decanoyl-CoA] the entry was “acyl-CoA substrates of chain length C4–C14 followed classical Michaelis–Menten kinetics”.

B1: ethanol hexanoyl transferase 1 (Eht1) (enzyme, Saccharomyces cerevisiae, UniProt P38295 1-451, looked up)
chain: T1 sequence (P38295 1-451)
notes: Theoretical mass of the recombinant protein is printed as 55 kDa; also called recombinant Eht1; YBR177C gene product; source: yeast, plasmid pYES2CT, galactose-induced; purified from FC12-solubilized sedimenting membranes (Ni-NTA)
As for B1, in data set [2], the Michaelis constant (Km) – broadly, the substrate concentration at which the rate is half of its maximum – stood at 1.9 ± 0.6 µM; the kcat (commonly the number of substrate molecules converted per active site and unit of time at saturation) came out at 0.28 ± 0.02 s⁻¹. Besides, the stoichiometry N – broadly, the number of molecules, sites or subunits per partner or assembly – in data set [3] was ~2 and ~4. For the same molecule, the “stoichiometry N” value in data set [4] was about 5.
